Measurements as given in article PMC5566973 (Frontiers in Pharmacology, 2017).

Experiments:
[1] = Urinary and fecal excretion in rats; type: in vivo, Sprague-Dawley rats; conditions: for Cumulative excretion of the analyte, SUM of urine and feces: within 72 h
Experimental: Access to water was maintained all the time. Samples including blank urine and feces before dosing, urine and feces from 0 to 24 h, 24 to 48 h, and 48 to 72 h after dosing were collected and stored at −80°C until analysis.
Urine samples were thawed and an aliquot of 100 μL was processed for detection as described in Section Drug Analysis. Feces were homogenized and then weighed, added 6-folds of acetonitrile, extracted by ultrasonic wave for 1 h and then centrifuged. An aliquot of 100 μL was also processed for detection as described in Section Drug Analysis.

[2] = test system: Caco-2 cell monolayers; conditions: transcellular flux marker; ref Shen et al., 2015; cited from earlier work
[3] = molecular target: T1, human MRP2 (Homo sapiens, UniProt Q92887); assay: Vesicular transport assay, Sf9 membrane vesicles expressing human MRP2; type: in vitro ADME; conditions: probe at 50 μM
T1 construct: purchased GenoMembrane (Kanagawa, Japan); host or cells: Sf9
T1 sequence (Q92887 whole entry): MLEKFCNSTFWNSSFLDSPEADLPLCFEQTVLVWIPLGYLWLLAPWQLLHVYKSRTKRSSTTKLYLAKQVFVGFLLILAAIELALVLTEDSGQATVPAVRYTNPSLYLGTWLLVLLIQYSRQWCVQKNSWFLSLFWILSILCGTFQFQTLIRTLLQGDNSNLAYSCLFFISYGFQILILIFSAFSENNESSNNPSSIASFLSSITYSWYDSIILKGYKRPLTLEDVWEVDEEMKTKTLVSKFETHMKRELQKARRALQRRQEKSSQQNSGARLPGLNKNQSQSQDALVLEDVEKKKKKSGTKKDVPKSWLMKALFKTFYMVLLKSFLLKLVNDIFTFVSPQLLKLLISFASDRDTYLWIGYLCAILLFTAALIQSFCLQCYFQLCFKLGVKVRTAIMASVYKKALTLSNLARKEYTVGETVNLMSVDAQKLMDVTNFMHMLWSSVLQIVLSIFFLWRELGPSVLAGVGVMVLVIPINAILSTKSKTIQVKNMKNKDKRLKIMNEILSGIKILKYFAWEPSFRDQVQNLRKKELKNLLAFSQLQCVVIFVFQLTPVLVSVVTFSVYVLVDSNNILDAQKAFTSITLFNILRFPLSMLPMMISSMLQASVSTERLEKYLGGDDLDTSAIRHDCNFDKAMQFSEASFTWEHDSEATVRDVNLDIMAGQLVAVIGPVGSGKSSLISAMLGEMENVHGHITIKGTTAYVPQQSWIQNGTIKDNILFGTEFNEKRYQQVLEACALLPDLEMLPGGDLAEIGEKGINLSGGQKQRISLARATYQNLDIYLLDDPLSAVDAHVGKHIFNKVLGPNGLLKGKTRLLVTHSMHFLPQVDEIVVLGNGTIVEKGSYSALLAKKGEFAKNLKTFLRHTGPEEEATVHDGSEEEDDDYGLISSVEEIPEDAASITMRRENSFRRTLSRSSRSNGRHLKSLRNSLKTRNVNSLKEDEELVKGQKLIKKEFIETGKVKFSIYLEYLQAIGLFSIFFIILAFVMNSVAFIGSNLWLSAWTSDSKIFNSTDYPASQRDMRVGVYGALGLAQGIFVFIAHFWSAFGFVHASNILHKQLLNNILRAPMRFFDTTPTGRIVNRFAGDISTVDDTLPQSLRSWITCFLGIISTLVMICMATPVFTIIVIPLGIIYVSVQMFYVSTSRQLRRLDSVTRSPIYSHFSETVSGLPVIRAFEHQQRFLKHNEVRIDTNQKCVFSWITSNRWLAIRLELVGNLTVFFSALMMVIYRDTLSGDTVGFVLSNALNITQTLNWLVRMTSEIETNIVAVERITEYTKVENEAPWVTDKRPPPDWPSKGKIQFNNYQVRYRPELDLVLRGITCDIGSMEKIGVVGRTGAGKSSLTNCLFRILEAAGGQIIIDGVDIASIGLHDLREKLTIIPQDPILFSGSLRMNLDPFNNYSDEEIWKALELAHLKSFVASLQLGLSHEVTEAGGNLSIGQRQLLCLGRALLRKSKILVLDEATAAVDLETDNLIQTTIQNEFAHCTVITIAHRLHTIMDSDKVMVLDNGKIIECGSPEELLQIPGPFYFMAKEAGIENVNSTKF
Experimental: (§1) The vesicular transport assay was implemented as described in the GenoMembrane™ vesicular transport kit protocol (GenoMembrane, Kanagawa, Japan) with minor changes. Briefly, vesicle stocks were thawed and diluted with assay buffer (50 mM MOPS-Tris, 70 mM KCl, and 7.5 mM MgCl2). […] MgAMP instead of MgATP was used as a control. Apart from these, 4 mM glutathione was also included in BCRP and MRP2 assays. Transport was terminated with ice cold assay buffer, and then samples were quickly transferred to a filter plate. Wells were immediately washed 5 times with 200 μL assay buffer and dried. The vesicles on the plate were dissolved in 50 μL of 80% methanol and centrifuged at 2,000 rpm for 2 min after collection, and repeating the above procedures. Mixed the two filtrates together and added the pre-cooled methanol. After centrifugation at 12,000 rpm for 5 min at 4°C, a 5 μL aliquot of supernatant was injected into the UPLC-ESI-MS/MS system for analysis. Furthermore, the uptake of NMQ (MDR1), LY (BCRP), and E217βG (MRP2) was used to evaluate the activity of specific vesicles.

[4] = molecular target: T2, human MDR1 (Homo sapiens, UniProt P08183); assay: Vesicular transport assay, Sf9 membrane vesicles expressing human MDR1; type: in vitro ADME; conditions: probe at 5 μM
T2 construct: purchased GenoMembrane (Kanagawa, Japan); host or cells: Sf9
T2 sequence (P08183 whole entry): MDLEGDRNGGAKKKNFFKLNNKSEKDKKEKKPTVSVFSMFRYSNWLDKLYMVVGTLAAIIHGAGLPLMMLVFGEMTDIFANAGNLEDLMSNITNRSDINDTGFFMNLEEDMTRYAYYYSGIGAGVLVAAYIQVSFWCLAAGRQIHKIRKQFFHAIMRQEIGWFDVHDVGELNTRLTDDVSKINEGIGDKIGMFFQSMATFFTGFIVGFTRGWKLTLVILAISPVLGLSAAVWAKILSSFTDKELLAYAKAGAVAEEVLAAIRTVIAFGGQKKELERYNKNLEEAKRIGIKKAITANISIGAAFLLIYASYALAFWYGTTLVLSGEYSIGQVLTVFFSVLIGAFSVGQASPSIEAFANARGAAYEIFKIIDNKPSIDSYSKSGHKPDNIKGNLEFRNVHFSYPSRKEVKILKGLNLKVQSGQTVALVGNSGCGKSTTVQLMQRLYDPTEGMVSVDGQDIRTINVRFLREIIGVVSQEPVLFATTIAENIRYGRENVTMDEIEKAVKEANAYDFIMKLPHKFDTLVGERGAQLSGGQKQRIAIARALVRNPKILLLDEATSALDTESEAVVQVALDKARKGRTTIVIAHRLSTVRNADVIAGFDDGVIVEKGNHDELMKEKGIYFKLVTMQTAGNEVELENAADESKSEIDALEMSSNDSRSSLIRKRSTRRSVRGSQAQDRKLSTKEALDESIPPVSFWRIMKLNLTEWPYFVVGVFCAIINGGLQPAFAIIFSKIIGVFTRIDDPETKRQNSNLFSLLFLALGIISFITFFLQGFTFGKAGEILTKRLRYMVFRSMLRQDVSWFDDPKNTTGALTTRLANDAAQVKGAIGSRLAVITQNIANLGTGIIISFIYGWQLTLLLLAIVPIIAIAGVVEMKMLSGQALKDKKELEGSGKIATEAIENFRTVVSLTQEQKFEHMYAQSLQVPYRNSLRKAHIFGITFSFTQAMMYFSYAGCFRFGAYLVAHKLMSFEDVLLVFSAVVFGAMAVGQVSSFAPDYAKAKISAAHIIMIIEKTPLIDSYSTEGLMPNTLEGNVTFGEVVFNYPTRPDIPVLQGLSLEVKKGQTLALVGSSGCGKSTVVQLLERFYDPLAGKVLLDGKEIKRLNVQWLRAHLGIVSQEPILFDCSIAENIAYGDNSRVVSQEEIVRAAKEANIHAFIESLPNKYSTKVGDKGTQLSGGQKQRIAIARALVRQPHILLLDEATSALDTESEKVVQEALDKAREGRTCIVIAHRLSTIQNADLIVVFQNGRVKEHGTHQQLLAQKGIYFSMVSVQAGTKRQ
Experimental: as §1

[5] = molecular target: T3, human BCRP (Homo sapiens, UniProt Q9UNQ0); assay: Vesicular transport assay, Sf9 membrane vesicles expressing human BCRP; type: in vitro ADME; conditions: 10 μM, MgATP vs MgAMP
T3 construct: purchased GenoMembrane (Kanagawa, Japan); host or cells: Sf9
T3 sequence (Q9UNQ0 1-655): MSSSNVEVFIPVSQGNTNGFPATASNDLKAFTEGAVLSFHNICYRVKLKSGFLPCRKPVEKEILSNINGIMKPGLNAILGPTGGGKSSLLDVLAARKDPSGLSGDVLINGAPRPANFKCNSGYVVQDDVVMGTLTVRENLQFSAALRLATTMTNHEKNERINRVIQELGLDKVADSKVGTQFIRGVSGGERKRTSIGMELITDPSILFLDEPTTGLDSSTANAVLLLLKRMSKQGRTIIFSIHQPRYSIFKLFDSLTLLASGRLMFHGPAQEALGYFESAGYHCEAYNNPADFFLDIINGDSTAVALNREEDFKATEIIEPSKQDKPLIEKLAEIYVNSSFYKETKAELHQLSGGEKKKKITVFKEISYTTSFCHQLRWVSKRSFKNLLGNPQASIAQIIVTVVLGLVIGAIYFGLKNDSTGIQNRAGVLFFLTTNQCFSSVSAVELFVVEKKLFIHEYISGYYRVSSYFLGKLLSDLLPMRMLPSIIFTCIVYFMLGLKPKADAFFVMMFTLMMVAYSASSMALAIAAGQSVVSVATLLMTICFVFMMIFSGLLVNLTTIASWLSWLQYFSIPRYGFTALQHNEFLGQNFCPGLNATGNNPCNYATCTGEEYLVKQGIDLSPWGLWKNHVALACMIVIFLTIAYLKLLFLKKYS
Experimental: as §1

[6] = after oral harmaline 40.0 mg/kg, 24 h
[7] = after oral harmaline 40.0 mg/kg, 48 h
[8] = after oral harmaline 40.0 mg/kg, 72 h
[9] = after oral harmaline 40.0 mg/kg
[10] = after oral harmine 40.0 mg/kg, 24 h
[11] = after oral harmine 40.0 mg/kg, 48 h
[12] = after oral harmine 40.0 mg/kg, 72 h

Row | Compound | Cumulative excretion in feces (%) of the analyte [1, 6] [%] | Cumulative excretion in urine (%) of the analyte [1, 6] [%] | Cumulative excretion in feces (%) of the analyte [1, 7] [%] | Cumulative excretion in urine (%) of the analyte [1, 7] [%] | Cumulative excretion in feces (%) of the analyte [1, 8] [%] | Cumulative excretion in urine (%) of the analyte [1, 8] [%] | Cumulative excretion of the analyte, SUM of urine and feces [1, 9] [%] | also measured
1 | Cc1[nH]ccc2c1[nH]c1cc(=O)ccc12 [Harmol] | 1.24 ± 0.51 | 0.23 ± 0.42 | 1.64 ± 0.73 | 0.50 ± 0.55 | 1.70 ± 0.75 | 0.65 ± 0.56 | 2.35 ± 0.91 | Cumulative excretion in feces (%) of the analyte [1, 10]: 5.66 ± 2.96%; Cumulative excretion in urine (%) of the analyte [1, 10]: 2.51 ± 2.82%; Cumulative excretion in feces (%) of the analyte [1, 11]: 7.69 ± 3.33%; Cumulative excretion in urine (%) of the analyte [1, 11]: 4.63 ± 4.53%; Cumulative excretion in feces (%) of the analyte [1, 12]: 8.38 ± 3.47%; Cumulative excretion in urine (%) of the analyte [1, 12]: 5.42 ± 5.19%; Cumulative excretion of the analyte, SUM of urine and feces ([1]; after oral harmine 40.0 mg/kg): 13.80 ± 5.71%
2 | CC(C)NCC(O)COc1cccc2ccccc12 (stereo not shown) [propranolol, reference compound] | – | – | – | – | – | – | – | PappAB [2]: 41.90 ± 3.30 × 10^−6 cm/s
3 | C[C@]12CC[C@@H]3c4ccc(O)cc4CC[C@H]3[C@@H]1CC[C@@H]2O[C@@H]1O[C@H](C(=O)O)[C@@H](O)[C@H](O)[C@H]1O [E217βG, estradiol-17 β-glucuronide, reference compound] | – | – | – | – | – | – | – | uptake ratio (UR) [3]: 7.71
4 | C=C[C@H]1C[N+]2(C)CC[C@H]1C[C@@H]2[C@@H](O)c1ccnc2ccc(OC)cc12 [NMQ, N-methylquinidine, reference compound] | – | – | – | – | – | – | – | uptake ratio (UR) [4]: 2.05
5 | lucifer yellow [LY, reference compound] | – | – | – | – | – | – | – | uptake ratio (UR) [5]: 19.66
6 | CC1=NCCc2c1[nH]c1cc(O)ccc21 [Harmalol] | 1.73 ± 1.01 | 1.16 ± 0.81 | 1.87 ± 1.04 | 2.03 ± 2.12 | 1.89 ± 1.04 | 2.30 ± 2.36 | 4.18 ± 2.67 | –
